Test system: Spontaneously Hypertensive Rats (SHRs)
Assay: Urination behavior recording in metabolic cages after 8 weeks of oral intake of rosmarinic acid-containing feed (urinary frequency, urine volume)
Format: in vivo, rat
Settings: for Mean urinary frequency of rats during rest period / Mean urine volume of rats during rest period / Mean urinary frequency of rats during activity period / Mean urine volume of rats during activity period: 0.5 mass % rosmarinic acid feed, 8 weeks, mean ± standard error, n=12; for Significant difference in mean urinary frequency, treatment vs control group / Significant difference in mean urine volume, treatment vs control group: Student-t test
Source text: For the test, Spontaneously Hypertensive Rats (SHRs, see American Journal of Physiology, 1998, vol. 275, p. R1279-1286 and Neurourology and Urodynamics, 2005, vol. 24, p. 295-300) (42-week-old, female, obtained from Japan SLC) were used. SHRs in the treatment group (n=12) ingested, for 8 weeks, a rosmarinic acid-containing feed (composition: 0.5 mass % rosmarinic acid (obtained from Carbosynth, Inc.), 66 mass % starch, 20 mass % casein, 5 mass % corn oil, 4 mass % cellulose, 3.5 mass % mineral, and 1 mass % vitamin). SHRs in the control group (n=12) ingested, for 8 weeks, a rosmarinic acid-free feed (composition: 66.5 mass % starch, 20 mass % casein, 5 mass % corn oil, 4 mass % cellulose, 3.5 mass % mineral, and 1 mass % vitamin). Then, their urination behavior was recorded in metabolic cages. Note that, before the recording in the metabolic cages, 4-day adaptation period was provided, and they were reared individually. The urination behavior recording (measurement of the urinary frequency and the urine volume) was carried out under conditions with free access to feed and water and under conditions with a 12/12-h light/dark cycle. The urine volume was weighed with an electronic balance while the urine was collected every urination. Note that a past report (see Neurourology and Urodynamics, 2017, vol. 36, p. 1034-1038) was consulted; the start time of a light period corresponding to a rest period of each rat was set to ZT0; the light period was divided into two periods of ZT0-6 and ZT6-12; and the urinary frequency during each period was defined as an indicator for nocturia. In addition, a dark period corresponding to an activity period was divided into two periods of ZT12-18 and ZT18-24; and the urinary frequency during each period was defined as an indicator for daytime frequent urination. […] The results were means±standard errors. To compare the inter-group means, Student-t test was used.

Structure (SMILES): O=C(/C=C/c1ccc(O)c(O)c1)O[C@H](Cc1ccc(O)c(O)c1)C(=O)O [rosmarinic acid]
- Mean urinary frequency of rats during rest period (ZT0-6 (rest period)): 2.5 ± 0.2 times/6 h
- Mean urine volume of rats during rest period (ZT0-6 (rest period)): 1.7 ± 0.1 mL/6 h
- Significant difference in mean urinary frequency, treatment vs control group (ZT0-6 (rest period)): N.S.
- Significant difference in mean urine volume, treatment vs control group (ZT0-6 (rest period)): N.S.
- Mean urinary frequency of rats during rest period (ZT6-12 (rest period)): 2.4 ± 0.2 times/6 h
- Mean urine volume of rats during rest period (ZT6-12 (rest period)): 1.1 ± 0.1 mL/6 h
- Significant difference in mean urine volume, treatment vs control group (ZT6-12 (rest period)): N.S.
- Mean urinary frequency of rats during activity period (ZT12-18 (activity period)): 6.7 ± 1.1 times/6 h
- Mean urine volume of rats during activity period (ZT12-18 (activity period)): 2.4 ± 0.4 mL/6 h
- Significant difference in mean urinary frequency, treatment vs control group (ZT12-18 (activity period)): N.S.
- Significant difference in mean urine volume, treatment vs control group (ZT12-18 (activity period)): N.S.
- Mean urinary frequency of rats during activity period (ZT18-24 (activity period)): 6.0 ± 0.7 times/6 h
- Mean urine volume of rats during activity period (ZT18-24 (activity period)): 2.4 ± 0.2 mL/6 h
- Significant difference in mean urinary frequency, treatment vs control group (ZT18-24 (activity period)): N.S.
- Significant difference in mean urine volume, treatment vs control group (ZT18-24 (activity period)): N.S.
- Significant difference in the mean urine volume during each time zone, treatment vs control group (all time zones (ZT0-24)): undetected

— US11628153B2, “Agent for preventing or amelioriting nocturia” (Kao Corporation, priority 2018, dated 2023)
